Test results: ChEMBL document CHEMBL1124960, “Histamine H3 ligands: just pharmacological tools or potential therapeutic agents?” (J Med Chem, 1990)

Experiments:
Histamine H3 receptor [1] = target: T1, Histamine H3 receptor (Rattus norvegicus, UniProt Q9QYN8); experiment: Evaluated for antagonist activity against Histamine H3 receptor and represented as KB.; assay type: functional
[2] = target: Histamine H1 receptor (Cavia porcellus) (UniProt P31389); experiment: Evaluated for agonistic activity at histamine H1 receptor of guinea pig ileum and is represented as potency.; assay type: functional, tissue-based
Histamine H1 receptor (Cavia porcellus), sequence (P31389 whole entry): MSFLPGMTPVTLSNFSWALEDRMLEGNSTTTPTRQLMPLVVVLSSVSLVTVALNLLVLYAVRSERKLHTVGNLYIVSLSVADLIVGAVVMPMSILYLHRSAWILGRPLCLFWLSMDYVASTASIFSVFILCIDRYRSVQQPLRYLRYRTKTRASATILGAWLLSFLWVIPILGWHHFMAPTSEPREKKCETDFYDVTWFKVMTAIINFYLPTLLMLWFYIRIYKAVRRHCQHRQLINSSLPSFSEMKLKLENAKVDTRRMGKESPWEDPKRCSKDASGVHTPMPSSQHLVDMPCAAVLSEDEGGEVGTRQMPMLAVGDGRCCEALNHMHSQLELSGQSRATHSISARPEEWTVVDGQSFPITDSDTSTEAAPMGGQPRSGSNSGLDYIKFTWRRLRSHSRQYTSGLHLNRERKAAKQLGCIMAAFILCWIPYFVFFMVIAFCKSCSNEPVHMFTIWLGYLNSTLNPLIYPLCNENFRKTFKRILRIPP

[3] = target: Histamine H2 receptor (Cavia porcellus) (UniProt P47747); experiment: Evaluated for agonistic activity at histamine H2 receptor of guinea pig atrium and is represented as potency.; assay type: functional, tissue-based; conditions: Cardiac atrium
Histamine H2 receptor (Cavia porcellus), sequence (P47747 whole entry): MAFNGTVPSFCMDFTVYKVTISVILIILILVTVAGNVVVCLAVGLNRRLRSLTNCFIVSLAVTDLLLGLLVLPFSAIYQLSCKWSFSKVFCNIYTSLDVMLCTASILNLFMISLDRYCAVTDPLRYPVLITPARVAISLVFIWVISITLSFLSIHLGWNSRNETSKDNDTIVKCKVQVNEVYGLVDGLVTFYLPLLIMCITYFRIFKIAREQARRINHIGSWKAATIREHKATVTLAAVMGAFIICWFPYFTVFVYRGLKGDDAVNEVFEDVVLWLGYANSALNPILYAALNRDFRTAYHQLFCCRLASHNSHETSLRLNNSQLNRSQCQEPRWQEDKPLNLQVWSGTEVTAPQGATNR

[4] = target: Histamine H1 receptor (Cavia porcellus) (UniProt P31389); experiment: Evaluated for agonistic activity at histamine H1 receptor of guinea pig ileum and is represented as intrinsic activity; assay type: functional, tissue-based
[5] = target: Histamine H2 receptor (Cavia porcellus) (UniProt P47747); experiment: Evaluated for agonistic activity at histamine H2 receptor of guinea pig atrium and is represented as intrinsic activity; assay type: functional, tissue-based; conditions: Cardiac atrium
Histamine H3 receptor [6] = target: T1, Histamine H3 receptor; experiment: Evaluated for antagonistic activity at histamine H3 receptor in rat cerebral cortex and is represented as Ki.; assay type: functional, tissue-based
Histamine H3 receptor [7] = target: T1, Histamine H3 receptor; experiment: Evaluated for antagonist activity against histamine H3 receptor and is represented as -log Ki.; assay type: functional
[8] = target: Histamine H2 receptor (Cavia porcellus) (UniProt P47747); experiment: Evaluated for antagonist activity against histamine H2 receptor and represented as KB.; assay type: functional
[9] = target: Histamine H3 receptor (Rattus norvegicus) (UniProt Q9QYN8); experiment: Evaluated for antagonist activity against histamine H3 receptor and represented as KB.; assay type: functional
Target sequence in this assay (Q9QYN8 whole entry): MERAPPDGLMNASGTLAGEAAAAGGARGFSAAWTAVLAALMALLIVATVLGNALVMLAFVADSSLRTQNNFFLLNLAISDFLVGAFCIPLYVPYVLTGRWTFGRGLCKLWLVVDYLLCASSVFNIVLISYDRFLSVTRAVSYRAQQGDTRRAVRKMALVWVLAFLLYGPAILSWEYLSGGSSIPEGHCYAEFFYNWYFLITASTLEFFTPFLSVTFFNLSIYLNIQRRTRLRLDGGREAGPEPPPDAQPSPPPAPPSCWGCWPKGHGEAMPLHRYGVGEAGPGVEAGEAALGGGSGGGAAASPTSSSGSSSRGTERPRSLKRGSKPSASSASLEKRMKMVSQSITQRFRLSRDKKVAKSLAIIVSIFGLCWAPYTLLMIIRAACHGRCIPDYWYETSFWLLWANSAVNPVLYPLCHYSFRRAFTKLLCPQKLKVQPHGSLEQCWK

Histamine H3 receptor [10] = target: T1, Histamine H3 receptor; experiment: Evaluated for antagonistic activity at histamine H3 receptor in rat cerebral cortex and is represented as Ki; assay type: functional, tissue-based
Rattus norvegicus [11] = species: Rattus norvegicus; experiment: Relative inhibition of [3H]histamine release from pre-loaded slices of rat cerebral cortex; assay type: functional
[12] = target: Histamine H2 receptor (Cavia porcellus) (UniProt P47747); experiment: Evaluated for activity at Histamine H2 receptor in guinea pig ileum; assay type: tissue-based
[13] = target: Histamine H1 receptor (Cavia porcellus) (UniProt P31389); experiment: Evaluated for activity at Histamine H1 receptor in guinea pig ileum; assay type: tissue-based
[14] = target: Histamine H2 receptor (Cavia porcellus) (UniProt P47747); conditions: Cardiac atrium
[15] = target: Histamine H1 receptor (Cavia porcellus) (UniProt P31389); conditions: Ileum
[16] = target: Histamine H3 receptor (Rattus norvegicus) (UniProt Q9QYN8); experiment: Evaluated for activity against H3 receptor and represented as %recovery histamine release at a concentration 5 x 10 E -6M.
Target sequence in this assay (Q9QYN8 whole entry, looked up): as the sequence (Q9QYN8 whole entry) above

[17] = target: Histamine H2 receptor (Cavia porcellus) (UniProt P47747); experiment: Evaluated for activity against histamine H2 receptor in guinea pig gastric secretion and represented as alpha; assay type: tissue-based; conditions: Stomach
[18] = target: Histamine H2 receptor (Cavia porcellus) (UniProt P47747); experiment: Evaluated for activity against histamine H2 receptor in guinea pig atrium and represented as alpha; assay type: tissue-based; conditions: Cardiac atrium
[19] = target: Histamine H2 receptor (Cavia porcellus) (UniProt P47747); experiment: Evaluated for activity against histamine H2 receptor in guinea pig gastric secretion and represented as pD2; assay type: tissue-based; conditions: Stomach
[20] = target: Histamine H2 receptor (Cavia porcellus) (UniProt P47747); experiment: Evaluated for activity against histamine H2 receptor in guinea pig atrium and represented as intrinsic activity; conditions: Cardiac atrium
[21] = target: Histamine H2 receptor (Cavia porcellus) (UniProt P47747); experiment: Evaluated for activity against Histamine H2 receptor in guinea pig atrium and represented as alpha; assay type: tissue-based; conditions: Cardiac atrium
Histamine H2 receptor = Histamine H2 receptor (Cavia porcellus, UniProt P47747); experiment: Evaluated for activity against Histamine H2 receptor in guinea pig atrium and represented pA2; assay type: tissue-based, Cardiac atrium; conditions: read-out: pA2 (converted)
Histamine H2 receptor, sequence (P47747 whole entry): as the sequence (P47747 whole entry) above

[22] = target: Histamine H2 receptor (Cavia porcellus) (UniProt P47747); experiment: Evaluated for agonistic (intrinsic) activity at histamine H2 receptor of guinea pig atrium and is represented as intrinsic activity; assay type: functional, tissue-based; conditions: Cardiac atrium
[23] = target: Histamine H1 receptor (Cavia porcellus) (UniProt P31389); experiment: Evaluated for agonistic activity at histamine H1 receptor of guinea pig ileum and is represented as potency; assay type: functional, tissue-based
Rattus norvegicus [24] = species: Rattus norvegicus; experiment: Inhibition of [3H]histamine release from preloaded slices of rat cerebral cortex as pD2; assay type: functional
[25] = target: Histamine H1 receptor (Cavia porcellus) (UniProt P31389); experiment: Evaluated for their activity at histamine H1 receptor in guinea pig ileum.; assay type: tissue-based
[26] = target: Histamine H2 receptor (Cavia porcellus) (UniProt P47747); experiment: Evaluated for their activity at histamine H2 receptor in guinea pig ileum.; assay type: tissue-based

T1 sequence (Q9QYN8 whole entry): as the sequence (Q9QYN8 whole entry) above

O=C(CCCCc1ccccc1)NCCc1cnc[nH]1
Ki (Histamine H3 receptor [1]): 200 nM

Cc1nc[nH]c1CSCCNC(=N)N[C@H](C)Cc1c[nH]cn1 [SOPROMIDINE]
Potency [2]: 1.7 | pD2 [3]: 6.92 | Activity [4]: 0.2 | Activity [5]: 1 | Ki (Histamine H3 receptor [6]): 60 nM

O=C(CCC(c1ccccc1)c1ccccc1)NCCc1c[nH]cn1
Ki (Histamine H3 receptor [7]): 1000 nM

C/N=C(/NC#N)NCCSCc1csc(NC(=N)N)n1
KB [8]: 15 nM | KB [9]: > 12 µM

Cc1nc[nH]c1CSCCNC(N)=N[C@@H](C)Cc1cnc[nH]1
Ki (Histamine H3 receptor [10]): 40 nM

Cn1cnc(CCN)c1 [N-METHYLHISTAMINE]
Ratio_EC50 (Rattus norvegicus [11]): <4 | Activity [12]: < 0.1 | Activity [13]: < 0.01

O=C(CCCc1cnc[nH]1)NCCc1cnc[nH]1
Ki (Histamine H3 receptor [7]): 1000 nM

NCCc1c[nH]cn1 [HISTAMINE]
pD2 [14]: 5.95 | Ratio_EC50 (Rattus norvegicus [11]): 100 | Activity [12]: 100 | Activity [13]: 100 | Potency [15]: 100

N=C(N)Nc1nc(CSCC/N=C(\N)NCCCc2c[nH]cn2)cs1
Release [16]: 100% | pD2 [17]: 8.2 | Activity [18]: 1 | pD2 [19]: 7.9 | intrinsic activity [20]: 1

Cc1nc[nH]c1CCN [4-METHYLHISTAMINE]
Ratio_EC50 (Rattus norvegicus [11]): <0.008 | Activity [12]: 43 | Activity [13]: 0.23

CN(C)CCCSC(=N)N
Ratio_EC50 (Rattus norvegicus [11]): <0.03 | Activity [12]: 71 | Activity [13]: < 0.0001

CSCC/N=C(\NC#N)NCCCc1c[nH]cn1 [VUF-8406]
Release [16]: 100% | Activity [21]: 0 | Kb (Histamine H2 receptor): 15.8 nM

O=C(Cc1ccccc1)NCCc1c[nH]cn1
Ki (Histamine H3 receptor [1]): 1000 nM

Cc1nc[nH]c1CSCCN/C(N)=N/[C@@H](C)Cc1c[nH]cn1
Activity [22]: 0 | Potency [23]: 0 | Activity [4]: 0

C[C@H](N)Cc1c[nH]cn1
Ratio_EC50 (Rattus norvegicus [11]): 13 | Activity [12]: 1.74 | Activity [13]: 0.49

CN(C)CCc1cnc[nH]1
Ratio_EC50 (Rattus norvegicus [11]): 170 | pD2 (Rattus norvegicus [24]): 7.3 | Activity [25]: 44 | Activity [26]: 51

O=C(CCc1ccccc1)NCCc1cnc[nH]1
Ki (Histamine H3 receptor [1]): 631 nM
